Laboratory results reported in patent publication US20240034726A9, “MAP KINASE KINASE (MKK7) INHIBITORS AND USES THEREOF” (Dana-Farber Cancer Institute, Inc., priority 2020, published 2024).

Tests used:
Experiment in all cases: KINOMEscan
Assay type in all cases: binding
PLK2 = target: T1, PLK2 (Homo sapiens, UniProt Q9NYY3)
T1 construct: purchased KINOMEscan (Ambit) screening platform
From the text: (§1) The activity of the compounds was confirmed using Compound S-(I-1) in the KINOMEscan screening platform.

SIK = target: T2, SIK (Homo sapiens, UniProt P57059)
T2 construct: purchased KINOMEscan (Ambit)
From the text: as §1

CDK11 = target: T3, CDK11 (Homo sapiens, UniProt Q9BWU1)
T3 construct: purchased KINOMEscan (Ambit)
From the text: as §1

p38-alpha = target: T4, p38-alpha (Homo sapiens, UniProt Q16539)
T4 construct: purchased KINOMEscan (Ambit)
From the text: as §1

DCAMKL1 = target: T5, DCAMKL1 (Homo sapiens, UniProt O15075)
T5 construct: purchased KINOMEscan (Ambit)
From the text: as §1

EGFR(G719C) = target: T6, EGFR(G719C) (Homo sapiens, UniProt P00533, G719C)
T6 construct: purchased KINOMEscan (Ambit)
From the text: as §1

ULK3 = target: T7, ULK3 (Homo sapiens, UniProt Q6PHR2)
T7 construct: purchased KINOMEscan (Ambit) screening platform
From the text: as §1

MET(M1250T) = target: T8, MET(M1250T) (Homo sapiens, UniProt P08581, M1250T)
T8 construct: purchased KINOMEscan screening platform (Ambit)
From the text: as §1

CSNK1G1 = target: T9, CSNK1G1 (Homo sapiens, UniProt Q9HCP0)
T9 construct: purchased KINOMEscan (Ambit) screening platform
From the text: as §1

MET(Y1235D) = target: T10, MET(Y1235D) (Homo sapiens, UniProt P08581, Y1235D)
T10 construct: purchased KINOMEscan screening platform (Ambit)
From the text: as §1

EGFR(G719S) = target: T11, EGFR(G719S) (Homo sapiens, UniProt P00533, G719S)
T11 construct: purchased KINOMEscan (Ambit)
From the text: as §1

EGFR(S752-I759del) = target: T12, EGFR(S752-I759del) (Homo sapiens, UniProt P00533, DEL752-759)
T12 construct: purchased KINOMEscan (Ambit)
From the text: as §1

CDC2L5 = target: T13, CDC2L5 (Homo sapiens, UniProt Q14004)
T13 construct: purchased KINOMEscan (Ambit)
From the text: as §1

ITK = target: T14, ITK (Homo sapiens, UniProt Q08881)
T14 construct: purchased KINOMEscan (Ambit) screening platform
From the text: as §1

ULK1 = target: T15, ULK1 (Homo sapiens, UniProt O75385)
T15 construct: purchased KINOMEscan (Ambit) screening platform
From the text: as §1

PKMYT1 = target: T16, PKMYT1 (Homo sapiens, UniProt Q99640)
T16 construct: purchased KINOMEscan (Ambit) screening platform
From the text: as §1

JNK2 = target: T17, JNK2 (Homo sapiens, UniProt P45984)
T17 construct: purchased KINOMEscan (Ambit) screening platform
From the text: as §1

QSK = target: T18, QSK (Homo sapiens, UniProt Q9Y2K2)
T18 construct: KINOMEscan (Ambit)
From the text: as §1

EGFR(L858R) = target: T19, EGFR(L858R) (Homo sapiens, UniProt P00533, L858R)
T19 construct: purchased KINOMEscan (Ambit)
From the text: as §1

[1] = target: T20, TYK2(JH1domain-catalytic) (Homo sapiens, UniProt P29597)
T20 construct: TYK2(JH1domain); purchased KINOMEscan (Ambit) screening platform
From the text: as §1

FLT3(ITD) = system: FLT3(ITD)
From the text: as §1

CDK3 = target: T21, CDK3 (Homo sapiens, UniProt Q00526)
T21 construct: purchased KINOMEscan (Ambit)
From the text: as §1

DLK = target: T22, DLK (Homo sapiens, UniProt Q12852)
T22 construct: purchased KINOMEscan (Ambit)
From the text: as §1

LZK = target: T23, LZK (Homo sapiens, UniProt O43283)
T23 construct: purchased KINOMEscan screening platform (Ambit)
From the text: as §1

PIP5K1C = target: T24, PIP5K1C (Homo sapiens, UniProt O60331)
T24 construct: purchased KINOMEscan (Ambit) screening platform
From the text: as §1

BMPR2 = target: T25, BMPR2 (Homo sapiens, UniProt Q13873)
T25 construct: purchased KINOMEscan (Ambit)
From the text: as §1

MLK3 = target: T26, MLK3 (Homo sapiens, UniProt Q16584)
T26 construct: purchased KINOMEscan screening platform (Ambit)
From the text: as §1

EGFR(L858R, T790M) = target: T27, EGFR(L858R, T790M) (Homo sapiens, UniProt P00533, L858R/T790M)
T27 construct: purchased KINOMEscan (Ambit)
From the text: as §1

EGFR(L747-T751del, Sins) = system: EGFR(L747-T751del, Sins)
From the text: as §1

LATS2 = target: T28, LATS2 (Homo sapiens, UniProt Q9NRM7)
T28 construct: purchased KINOMEscan (Ambit) screening platform
From the text: as §1

CDK2 = target: T29, CDK2 (Homo sapiens, UniProt P24941)
T29 construct: purchased KINOMEscan (Ambit)
From the text: as §1

[2] = target: T30, RSK4(Kin.Dom.1-N-terminal) (Homo sapiens, UniProt Q9UK32)
T30 construct: Kin.Dom.1; purchased KINOMEscan (Ambit)
From the text: as §1

ACVR2B = target: T31, ACVR2B (Homo sapiens, UniProt Q13705)
T31 construct: purchased KINOMEscan (Ambit)
From the text: as §1

IRAK4 = target: T32, IRAK4 (Homo sapiens, UniProt Q9NWZ3)
T32 construct: purchased KINOMEscan (Ambit) screening platform
From the text: as §1

SYK = target: T33, SYK (Homo sapiens, UniProt P43405)
T33 construct: purchased KINOMEscan (Ambit)
From the text: as §1

[3] = target: T34, TYK2(JH2domain-pseudokinase) (Homo sapiens, UniProt P29597)
T34 construct: TYK2(JH2domain); purchased KINOMEscan (Ambit) screening platform
From the text: as §1

CDK8 = target: T35, CDK8 (Homo sapiens, UniProt P49336)
T35 construct: purchased KINOMEscan (Ambit)
From the text: as §1

EGFR(L861Q) = target: T36, EGFR(L861Q) (Homo sapiens, UniProt P00533, L861Q)
T36 construct: purchased KINOMEscan (Ambit)
From the text: as §1

EPHA5 = target: T37, EPHA5 (Homo sapiens, UniProt P54756)
T37 construct: purchased KINOMEscan (Ambit)
From the text: as §1

JNK3 = target: T38, JNK3 (Homo sapiens, UniProt P53779)
T38 construct: purchased KINOMEscan (Ambit) screening platform
From the text: as §1

MAP4K3 = target: T39, MAP4K3 (Homo sapiens, UniProt Q8IVH8)
T39 construct: purchased KINOMEscan screening platform (Ambit)
From the text: as §1

LOK = target: T40, LOK (Homo sapiens, UniProt O94804)
T40 construct: purchased KINOMEscan (Ambit) screening platform
From the text: as §1

WNK1 = target: T41, WNK1 (Homo sapiens, UniProt Q9H4A3)
T41 construct: purchased KINOMEscan (Ambit) screening platform
From the text: as §1

CSNK1G2 = target: T42, CSNK1G2 (Homo sapiens, UniProt P78368)
T42 construct: purchased KINOMEscan (Ambit) screening platform
From the text: as §1

EGFR(T790M) = target: T43, EGFR(T790M) (Homo sapiens, UniProt P00533, T790M)
T43 construct: purchased KINOMEscan (Ambit)
From the text: as §1

[4] = target: T44, JAK2(JH1domain-catalytic) (Homo sapiens, UniProt O60674)
T44 construct: JAK2(JH1domain-; purchased KINOMEscan (Ambit) screening platform
From the text: as §1

MST3 = target: T45, MST3 (Homo sapiens, UniProt Q9Y6E0)
T45 construct: purchased KINOMEscan screening platform (Ambit)
From the text: as §1

[5] = target: T46, JAK1(JH2domain-pseudokinase) (Homo sapiens, UniProt P23458)
T46 construct: JAK1(JH2domain-; purchased KINOMEscan (Ambit) screening platform
From the text: as §1

MARK4 = target: T47, MARK4 (Homo sapiens, UniProt Q96L34)
T47 construct: purchased KINOMEscan screening platform (Ambit)
From the text: as §1

CIT = target: T48, CIT (Homo sapiens, UniProt O14578)
T48 construct: purchased KINOMEscan (Ambit) screening platform
From the text: as §1

EGFR = target: T49, EGFR (Homo sapiens, UniProt P00533)
T49 construct: purchased KINOMEscan (Ambit)
From the text: as §1

[6] = target: T50, RSK4(Kin.Dom.2-C-terminal) (Homo sapiens, UniProt Q9UK32)
T50 construct: Kin.Dom.2; purchased KINOMEscan (Ambit)
From the text: as §1

CHEK1 = target: T51, CHEK1 (Homo sapiens, UniProt O14757)
T51 construct: purchased KINOMEscan (Ambit) screening platform
From the text: as §1

BTK = target: T52, BTK (Homo sapiens, UniProt Q06187)
T52 construct: purchased KINOMEscan (Ambit)
From the text: as §1

JNK1 = target: T53, JNK1 (Homo sapiens, UniProt P45983)
T53 construct: purchased KINOMEscan (Ambit) screening platform
From the text: as §1

EPHB2 = target: T54, EPHB2 (Homo sapiens, UniProt P29323)
T54 construct: purchased KINOMEscan (Ambit)
From the text: as §1

SNARK = target: T55, SNARK (Homo sapiens, UniProt Q9H093)
T55 construct: purchased KINOMEscan (Ambit)
From the text: as §1

MET = target: T56, MET (Homo sapiens, UniProt P08581)
T56 construct: purchased KINOMEscan screening platform (Ambit)
From the text: as §1

[7] = target: T57, EGFR(L747-S752del, P753S) (Homo sapiens, UniProt P00533, DEL747-752/P753S)
T57 construct: purchased KINOMEscan (Ambit)
From the text: as §1

[8] = target: T58, EGFR(L747-E749del, A750P) (Homo sapiens, UniProt P00533, A750P/DEL747-749)
T58 construct: purchased KINOMEscan (Ambit)
From the text: as §1

MKK7 = target: T59, MKK7 (Homo sapiens, UniProt O14733)
T59 construct: purchased KINOMEscan screening platform (Ambit)
From the text: as §1

[9] = target: T60, JAK1(JH1domain-catalytic) (Homo sapiens, UniProt P23458)
T60 construct: JAK1(JH1domain); purchased KINOMEscan (Ambit) screening platform
From the text: as §1

EGFR(E746-A750del) = target: T61, EGFR(E746-A750del) (Homo sapiens, UniProt P00533, DEL746-750)
T61 construct: purchased KINOMEscan (Ambit)
From the text: as §1

PFTK1 = target: T62, PFTK1 (Homo sapiens, UniProt O94921)
T62 construct: purchased KINOMEscan screening platform (Ambit)
From the text: as §1

ARK5 = target: T63, ARK5 (Homo sapiens, UniProt O60285)
T63 construct: purchased KINOMEscan (Ambit)
From the text: as §1

CSK = target: T64, CSK (Homo sapiens, UniProt P41240)
T64 construct: purchased KINOMEscan (Ambit) screening platform
From the text: as §1

PRKR = target: T65, PRKR (Homo sapiens, UniProt P19525)
T65 construct: KINOMEscan (Ambit)
From the text: as §1

MST1 = target: T66, MST1 (Homo sapiens, UniProt Q13043)
T66 construct: purchased KINOMEscan screening platform (Ambit)
From the text: as §1

CSNK1G3 = target: T67, CSNK1G3 (Homo sapiens, UniProt Q9Y6M4)
T67 construct: purchased KINOMEscan (Ambit) screening platform
From the text: as §1

T63 sequence (O60285 whole entry): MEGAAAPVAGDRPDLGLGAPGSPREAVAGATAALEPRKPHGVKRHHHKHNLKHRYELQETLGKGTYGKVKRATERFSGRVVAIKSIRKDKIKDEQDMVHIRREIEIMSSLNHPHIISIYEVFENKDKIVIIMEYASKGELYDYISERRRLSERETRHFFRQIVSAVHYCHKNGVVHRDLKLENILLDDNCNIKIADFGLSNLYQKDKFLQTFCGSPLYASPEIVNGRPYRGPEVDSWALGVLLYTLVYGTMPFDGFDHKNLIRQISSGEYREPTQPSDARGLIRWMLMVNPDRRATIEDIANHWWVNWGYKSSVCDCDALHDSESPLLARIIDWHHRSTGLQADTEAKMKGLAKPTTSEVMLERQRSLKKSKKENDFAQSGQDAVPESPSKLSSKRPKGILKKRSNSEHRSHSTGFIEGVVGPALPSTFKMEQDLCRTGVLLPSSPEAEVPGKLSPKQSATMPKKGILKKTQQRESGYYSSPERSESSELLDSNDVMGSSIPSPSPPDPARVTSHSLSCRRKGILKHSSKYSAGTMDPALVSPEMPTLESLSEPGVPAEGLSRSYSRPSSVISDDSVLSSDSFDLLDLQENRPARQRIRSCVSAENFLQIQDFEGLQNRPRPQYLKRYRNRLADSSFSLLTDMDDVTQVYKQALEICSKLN
T55 sequence (Q9H093 whole entry): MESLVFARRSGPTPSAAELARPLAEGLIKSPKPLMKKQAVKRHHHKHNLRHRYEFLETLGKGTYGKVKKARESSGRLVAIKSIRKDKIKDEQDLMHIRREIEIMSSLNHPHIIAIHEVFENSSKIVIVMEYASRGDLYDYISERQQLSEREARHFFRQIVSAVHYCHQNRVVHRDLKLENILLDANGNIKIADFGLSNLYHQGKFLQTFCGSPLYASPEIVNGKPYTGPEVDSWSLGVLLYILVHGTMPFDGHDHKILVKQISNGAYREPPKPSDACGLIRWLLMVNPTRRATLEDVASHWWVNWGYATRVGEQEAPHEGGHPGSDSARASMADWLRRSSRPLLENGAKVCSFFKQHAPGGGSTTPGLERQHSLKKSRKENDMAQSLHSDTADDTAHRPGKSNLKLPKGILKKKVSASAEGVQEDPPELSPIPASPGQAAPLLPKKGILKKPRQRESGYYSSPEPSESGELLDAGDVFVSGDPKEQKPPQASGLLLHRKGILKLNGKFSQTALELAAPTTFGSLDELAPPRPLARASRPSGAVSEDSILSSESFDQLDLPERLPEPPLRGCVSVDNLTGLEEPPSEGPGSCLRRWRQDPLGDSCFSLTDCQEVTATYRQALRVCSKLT
T32 sequence (Q9NWZ3 whole entry): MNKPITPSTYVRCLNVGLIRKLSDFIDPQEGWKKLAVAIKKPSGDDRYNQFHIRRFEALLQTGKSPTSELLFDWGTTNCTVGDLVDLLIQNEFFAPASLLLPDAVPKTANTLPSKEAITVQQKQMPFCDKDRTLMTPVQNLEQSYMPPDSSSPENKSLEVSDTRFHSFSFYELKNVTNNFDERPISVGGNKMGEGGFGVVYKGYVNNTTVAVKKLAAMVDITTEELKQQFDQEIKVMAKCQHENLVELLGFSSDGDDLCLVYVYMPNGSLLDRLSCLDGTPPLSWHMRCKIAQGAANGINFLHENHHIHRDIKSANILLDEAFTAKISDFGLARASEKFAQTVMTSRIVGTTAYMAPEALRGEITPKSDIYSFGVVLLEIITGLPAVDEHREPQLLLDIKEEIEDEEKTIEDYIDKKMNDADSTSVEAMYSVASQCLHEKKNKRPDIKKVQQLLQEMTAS
T49 sequence (P00533 25-1210): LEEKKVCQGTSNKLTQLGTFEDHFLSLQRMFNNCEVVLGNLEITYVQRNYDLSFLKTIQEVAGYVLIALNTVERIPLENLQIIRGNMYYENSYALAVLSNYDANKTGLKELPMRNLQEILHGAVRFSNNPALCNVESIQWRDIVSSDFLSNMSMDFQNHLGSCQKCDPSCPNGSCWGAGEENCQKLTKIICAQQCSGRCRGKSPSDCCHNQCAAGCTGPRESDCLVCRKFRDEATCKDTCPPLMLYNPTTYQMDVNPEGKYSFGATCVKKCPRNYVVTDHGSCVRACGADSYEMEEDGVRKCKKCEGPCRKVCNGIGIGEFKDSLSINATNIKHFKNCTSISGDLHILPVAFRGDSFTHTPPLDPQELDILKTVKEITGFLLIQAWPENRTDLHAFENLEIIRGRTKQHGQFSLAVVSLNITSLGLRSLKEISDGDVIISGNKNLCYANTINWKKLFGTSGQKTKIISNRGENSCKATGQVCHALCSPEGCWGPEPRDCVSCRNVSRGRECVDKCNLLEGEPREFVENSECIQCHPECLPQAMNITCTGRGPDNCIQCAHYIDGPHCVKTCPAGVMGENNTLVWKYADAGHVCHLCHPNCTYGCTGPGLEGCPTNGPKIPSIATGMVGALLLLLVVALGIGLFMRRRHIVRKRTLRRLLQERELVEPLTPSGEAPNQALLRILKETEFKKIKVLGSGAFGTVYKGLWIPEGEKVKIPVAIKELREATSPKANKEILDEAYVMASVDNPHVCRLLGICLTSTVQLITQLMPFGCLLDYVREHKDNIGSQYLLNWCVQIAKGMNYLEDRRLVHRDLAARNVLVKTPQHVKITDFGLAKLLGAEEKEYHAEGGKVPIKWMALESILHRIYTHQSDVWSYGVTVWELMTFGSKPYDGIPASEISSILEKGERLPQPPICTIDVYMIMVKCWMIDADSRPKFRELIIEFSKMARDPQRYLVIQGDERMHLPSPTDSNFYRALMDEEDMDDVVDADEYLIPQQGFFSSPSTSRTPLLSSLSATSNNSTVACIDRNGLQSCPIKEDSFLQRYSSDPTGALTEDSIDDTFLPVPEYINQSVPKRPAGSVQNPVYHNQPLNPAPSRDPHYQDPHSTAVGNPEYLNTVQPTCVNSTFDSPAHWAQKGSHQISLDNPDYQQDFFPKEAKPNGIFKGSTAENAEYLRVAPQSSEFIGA
T65 sequence (P19525 whole entry): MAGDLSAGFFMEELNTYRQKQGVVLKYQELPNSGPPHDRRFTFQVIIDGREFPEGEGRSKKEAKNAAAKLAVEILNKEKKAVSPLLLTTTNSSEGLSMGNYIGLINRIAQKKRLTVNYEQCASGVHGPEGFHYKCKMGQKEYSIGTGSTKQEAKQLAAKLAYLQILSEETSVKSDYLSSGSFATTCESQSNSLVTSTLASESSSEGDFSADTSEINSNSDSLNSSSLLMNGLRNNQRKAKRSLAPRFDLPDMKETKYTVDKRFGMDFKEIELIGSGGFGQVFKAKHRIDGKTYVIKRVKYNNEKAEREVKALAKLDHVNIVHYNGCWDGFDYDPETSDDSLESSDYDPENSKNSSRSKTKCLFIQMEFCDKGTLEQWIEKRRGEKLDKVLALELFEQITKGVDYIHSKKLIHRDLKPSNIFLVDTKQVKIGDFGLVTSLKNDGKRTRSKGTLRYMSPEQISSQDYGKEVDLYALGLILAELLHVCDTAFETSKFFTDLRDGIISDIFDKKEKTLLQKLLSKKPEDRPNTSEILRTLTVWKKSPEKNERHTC
T47 sequence (Q96L34 whole entry): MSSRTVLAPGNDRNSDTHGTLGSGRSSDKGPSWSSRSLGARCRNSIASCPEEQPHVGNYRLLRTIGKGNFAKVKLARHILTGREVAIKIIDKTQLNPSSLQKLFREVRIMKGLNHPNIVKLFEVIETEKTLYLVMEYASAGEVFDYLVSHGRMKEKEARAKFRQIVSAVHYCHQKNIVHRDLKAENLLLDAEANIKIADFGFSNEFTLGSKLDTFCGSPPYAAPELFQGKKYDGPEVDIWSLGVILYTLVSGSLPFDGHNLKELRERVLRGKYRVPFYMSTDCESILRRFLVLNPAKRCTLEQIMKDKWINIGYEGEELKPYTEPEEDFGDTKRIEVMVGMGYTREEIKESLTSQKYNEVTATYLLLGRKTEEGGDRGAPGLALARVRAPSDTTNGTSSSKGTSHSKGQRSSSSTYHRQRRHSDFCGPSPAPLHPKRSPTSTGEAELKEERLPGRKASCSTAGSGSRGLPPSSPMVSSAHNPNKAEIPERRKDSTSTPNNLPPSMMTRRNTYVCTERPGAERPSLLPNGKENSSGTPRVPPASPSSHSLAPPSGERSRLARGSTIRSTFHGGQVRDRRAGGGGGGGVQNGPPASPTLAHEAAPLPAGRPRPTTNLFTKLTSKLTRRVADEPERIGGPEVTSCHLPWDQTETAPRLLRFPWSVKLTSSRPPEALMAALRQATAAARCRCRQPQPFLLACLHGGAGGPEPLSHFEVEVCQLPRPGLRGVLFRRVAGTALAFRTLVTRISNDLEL
T52 sequence (Q06187 whole entry): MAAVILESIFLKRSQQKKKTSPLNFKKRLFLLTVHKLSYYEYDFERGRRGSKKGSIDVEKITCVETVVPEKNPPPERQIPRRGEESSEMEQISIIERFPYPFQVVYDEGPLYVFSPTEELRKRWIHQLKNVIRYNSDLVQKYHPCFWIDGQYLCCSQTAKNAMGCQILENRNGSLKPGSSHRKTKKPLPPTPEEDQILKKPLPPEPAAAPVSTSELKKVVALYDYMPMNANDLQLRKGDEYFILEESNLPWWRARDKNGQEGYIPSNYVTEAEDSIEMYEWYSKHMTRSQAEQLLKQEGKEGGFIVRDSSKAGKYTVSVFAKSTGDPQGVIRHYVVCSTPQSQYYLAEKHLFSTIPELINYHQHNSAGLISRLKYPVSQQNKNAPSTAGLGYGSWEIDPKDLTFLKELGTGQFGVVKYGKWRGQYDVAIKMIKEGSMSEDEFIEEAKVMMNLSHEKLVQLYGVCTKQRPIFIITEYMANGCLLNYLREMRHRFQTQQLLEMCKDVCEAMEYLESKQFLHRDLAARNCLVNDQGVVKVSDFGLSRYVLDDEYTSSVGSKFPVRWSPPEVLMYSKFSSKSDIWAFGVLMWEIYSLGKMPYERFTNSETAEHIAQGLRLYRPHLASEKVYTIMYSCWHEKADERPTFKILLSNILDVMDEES

C=CC(=O)N1CCC(Nc2nccc(Oc3cc(C(=O)Nc4ccc(CN5CCN(CC)CC5)c(C(F)(F)F)c4)ccc3C)n2)C1 (stereo not drawn) [S-(I-1)]
Score (PLK2): 89 | Score (SIK): 87 | Score (CDK11): 0 | Score (p38-alpha): 0 | Score (DCAMKL1): 99 | Score (EGFR(G719C)): 59 | Score (ULK3): 78 | Score (MET(M1250T)): 99 | Score (CSNK1G1): 91 | Score (MET(Y1235D)): 96 | Score (EGFR(G719S)): 81 | Score (EGFR(S752-I759del)): 90 | Score (CDC2L5): 65 | Score (ITK): 98 | Score (ULK1): 94 | Score (PKMYT1): 89 | Score (JNK2): 0.35 | Score (QSK): 87 | Score (EGFR(L858R)): 84 | Score [1]: 91 | Score (FLT3(ITD)): 24 | Score (CDK3): 56 | Score (DLK): 90 | Score (LZK): 100 | Score (PIP5K1C): 52 | Score (BMPR2): 100 | Score (MLK3): 97 | Score (EGFR(L858R, T790M)): 94 | Score (EGFR(L747-T751del, Sins)): 43 | Score (LATS2): 100 | Score (CDK2): 77 | Score [2]: 90 | Score (ACVR2B): 93 | Score (IRAK4): 81 | Score (SYK): 24 | Score [3]: 92 | Score (CDK8): 2.8 | Score (EGFR(L861Q)): 66 | Score (EPHA5): 87 | Score (JNK3): 52 | Score (MAP4K3): 93 | Score (LOK): 0.35 | Score (WNK1): 86 | Score (CSNK1G2): 97 | Score (EGFR(T790M)): 90 | Score [4]: 84 | Score (MST3): 88 | Score [5]: 100 | Score (MARK4): 100 | Score (CIT): 61 | Score (EGFR): 68 | Score [6]: 91 | Score (CHEK1): 100 | Score (BTK): 98 | Score (JNK1): 28 | Score (EPHB2): 91 | Score (SNARK): 100 | Score (MET): 100 | Score [7]: 38 | Score [8]: 52 | Score (MKK7): 0.9 | Score [9]: 62 | Score (EGFR(E746-A750del)): 66 | Score (PFTK1): 77 | Score (ARK5): 83 | Score (CSK): 58 | Score (PRKR): 85 | Score (MST1): 100 | Score (CSNK1G3): 92
